Results taken from article PMC10580383, “Development of Melanocortin 4 Receptor Agonists by Exploiting Animal-Derived Macrocyclic, Disulfide-Rich Peptide Scaffolds” (ACS Pharmacology & Translational Science, 2023).
Where a SMILES comes first, the peptide text is derived from it. Bridges are numbered along the chain shown (N, C = ends). [ ]: non-standard residue; d: D form.

Test system: mouse MC4R-EGFP
Assay: kinetic BRET β-arrestin-2 recruitment assay (MC4R-EGFP / β-arrestin-2-nanoluciferase)
Type: cell-based
Conditions: ligand 10 μM; HEK293 cells, MC4R-EGFP and β-arrestin-2-NLuc; mean ligand-induced BRET from 312 to 2433 s, NDP-α-MSH set as 100; three independent experiments
Procedure: Considering the physiological relevance of β-arrestins and their critical role in orchestrating MC4R signaling, we measured β-arrestin-2 recruitment in a kinetic bioluminescence resonance energy transfer (BRET) assay. We screened at a ligand concentration of 10 μM in HEK293 cells transiently expressing MC4R coupled to EGFP, and β-arrestin-2 fused to nanoluciferase. […] By contrast, Pr4LP1, Ar3LP1, Ar3LP2, and GoLP1 recruited β-arrestin-2 with greater efficiencies (>130%) than NDP-α-MSH (Figures 4 and S5B,C).
Figure 4 β-Arrestin-2 recruitment of designed MC4R peptide analogues. BRET assay was used to measure the transient interaction of MC4R-EGFP with β-arrestin-2-nanoluciferase (NLuc) in HEK293 cells over time following cell treatment with 10 μM of tachyplesin-1-like peptides (Ta1LPs, green), protegrin-4-like peptides (Pr4LPs, pink), arenicin-3-like peptides (Ar3LPs, orange), and gomesin-like peptides (GoLPs, blue). Relative BRET quantification was determined by calculating the mean value of ligand-induced BRET for each peptide ligand from 312 to 2433 s which was then divided by the mean value of ligand-induced BRET of NDP-α-MSH set as 100. Data are shown as mean ± SEM from three independent experiments.
BRET assay was performed as previously described.[32] Briefly, β-arrestin-2-nano luciferase and mouse MC4R-EGFP were cotransfected in a 1:10 ratio. 16 h post-transfection, 50,000 cells in 100 μL of phenol red-free DMEM with 10% FBS per well were transferred into white clear bottom 96-well plates and incubated overnight. On the day of the assay, cells were incubated for 1 h at 37 °C in phenol red- and serum-free DMEM. Furimazine (diluted 1:50) and peptide ligands (4×) were prepared in Hank’s balanced salt solution (HBSS), respectively. Prior to establishing the baseline and measuring kinetic BRET, furimazine was incubated for 5 min at 37 °C. The ability of peptide ligands to induce β-arrestin-2 recruitment was assessed by measuring light emissions for EGFP (510 nm) and nanoluciferase (460 nm) over 35 min using Flexstation 3 (Molecular Devices, San Jose, USA). The BRET ratio was calculated as emission EGFP (510 nm)/emission nanoluciferase (460 nm). The ligand-induced BRET was calculated by subtracting […].

SMILES | BRET efficacy of β-arrestin-2 recruitment relative to NDP-α-MSH
CC(C)[C@@H]1NC(=O)[C@H](Cc2ccc(O)cc2)NC(=O)[C@H](Cc2c[nH]c3ccccc23)NC(=O)[C@@H](NC(=O)[C@H](Cc2ccccc2)NC(=O)CN)CSSC[C@@H](C(=O)N[C@@H](CC(N)=O)C(N)=O)NC(=O)[C@H](CCCNC(=N)N)NC(=O)[C@H](CCCNC(=N)N)NC(=O)[C@H](Cc2ccc(O)cc2)NC(=O)[C@@H]2CSSC[C@H](NC1=O)C(=O)N1CCC[C@H]1C(=O)N[C@@H](Cc1c[nH]cn1)C(=O)N[C@H](Cc1ccccc1)C(=O)N[C@@H](Cc1c[nH]cn1)C(=O)N[C@@H](Cc1c[nH]c3ccccc13)C(=O)N2 [Ar3LP1] (H-GFCWYVCPH[dF]HWCYRRCN-NH2; disulfide 3-17, 7-13) | > 130%
CC(C)C[C@H](NC(=O)[C@H](CCCNC(=N)N)NC(=O)CNC(=O)CNC(=O)[C@@H](N)CCCNC(=N)N)C(=O)N[C@H]1CSSC[C@@H](C(=O)N[C@H](C(=O)NCC(=O)N[C@@H](CCCNC(=N)N)C(N)=O)C(C)C)NC(=O)[C@H](Cc2ccccc2)NC(=O)[C@@H]2CSSC[C@H](NC(=O)[C@H](Cc3ccc(O)cc3)NC1=O)C(=O)N1CCC[C@H]1C(=O)N[C@@H](Cc1c[nH]cn1)C(=O)N[C@H](Cc1ccccc1)C(=O)N[C@@H](Cc1c[nH]cn1)C(=O)N[C@@H](Cc1c[nH]c3ccccc13)C(=O)N2 [Pr4LP1] (H-RGGRLCYCPH[dF]HWCFCVGR-NH2; disulfide 6-16, 8-14) | > 130%
